Legend:
Format in all cases: biochemical
PI3K-gamma = PI3K-gamma (Homo sapiens, UniProt P48736); test: PI3K-gamma fluorescence polarization assay; conditions: PI3Kγ Avg. IC50
Procedure, shortened: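 Each isoform (5 ng) phosphorylated 2.5 μM diC8-PI(4,5)P2 at 25 μM ATP for one hour at 25° C in the presence of inhibitor. Reactions were then stopped with EDTA, and product was detected by fluorescence polarization using a GST-GRP1 PH domain and a BODIPY-TMR-labelled IP4 tracer.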

human TOR = molecular target: T1, human TOR (Homo sapiens, UniProt P42345); test: mTOR enzyme assay (DELFIA, His6-S6K substrate); conditions: read-out: mTOR Kinase Avg. IC50
T1 construct: FLAG

PI3K-alpha = PI3K-alpha (Homo sapiens, UniProt P42336); test: PI3K-alpha fluorescence polarization assay; conditions: read-out: PI3Kα Avg. IC50
PI3K-alpha, sequence (P42336 whole entry, species assumed): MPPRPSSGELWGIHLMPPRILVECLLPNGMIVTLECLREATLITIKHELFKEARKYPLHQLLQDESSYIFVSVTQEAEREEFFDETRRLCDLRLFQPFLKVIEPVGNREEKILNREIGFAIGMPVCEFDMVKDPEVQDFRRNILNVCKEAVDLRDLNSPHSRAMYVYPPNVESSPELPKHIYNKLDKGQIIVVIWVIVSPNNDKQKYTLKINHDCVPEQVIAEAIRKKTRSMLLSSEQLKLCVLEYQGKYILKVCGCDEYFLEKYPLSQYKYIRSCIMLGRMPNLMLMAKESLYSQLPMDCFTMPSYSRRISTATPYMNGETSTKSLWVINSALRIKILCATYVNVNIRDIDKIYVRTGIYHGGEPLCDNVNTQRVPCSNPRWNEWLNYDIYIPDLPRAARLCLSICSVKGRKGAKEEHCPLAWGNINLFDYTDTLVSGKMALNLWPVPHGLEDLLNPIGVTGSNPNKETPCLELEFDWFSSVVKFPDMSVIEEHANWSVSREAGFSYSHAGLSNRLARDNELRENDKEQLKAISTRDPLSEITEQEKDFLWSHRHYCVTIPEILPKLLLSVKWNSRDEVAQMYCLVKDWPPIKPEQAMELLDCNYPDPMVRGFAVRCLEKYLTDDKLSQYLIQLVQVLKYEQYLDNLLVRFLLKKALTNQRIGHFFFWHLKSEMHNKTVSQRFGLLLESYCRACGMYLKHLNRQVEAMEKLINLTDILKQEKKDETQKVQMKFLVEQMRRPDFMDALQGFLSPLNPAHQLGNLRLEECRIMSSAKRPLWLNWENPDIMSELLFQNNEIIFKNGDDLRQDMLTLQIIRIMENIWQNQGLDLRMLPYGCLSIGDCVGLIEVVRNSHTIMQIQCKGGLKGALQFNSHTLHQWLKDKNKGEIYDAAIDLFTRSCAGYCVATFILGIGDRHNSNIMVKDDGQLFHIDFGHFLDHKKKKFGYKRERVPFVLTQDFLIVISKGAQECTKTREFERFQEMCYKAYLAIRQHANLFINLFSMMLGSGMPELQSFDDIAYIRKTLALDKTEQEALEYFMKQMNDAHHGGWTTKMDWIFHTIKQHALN
PI3K-alpha, sequence (P27986 whole entry partner, species assumed): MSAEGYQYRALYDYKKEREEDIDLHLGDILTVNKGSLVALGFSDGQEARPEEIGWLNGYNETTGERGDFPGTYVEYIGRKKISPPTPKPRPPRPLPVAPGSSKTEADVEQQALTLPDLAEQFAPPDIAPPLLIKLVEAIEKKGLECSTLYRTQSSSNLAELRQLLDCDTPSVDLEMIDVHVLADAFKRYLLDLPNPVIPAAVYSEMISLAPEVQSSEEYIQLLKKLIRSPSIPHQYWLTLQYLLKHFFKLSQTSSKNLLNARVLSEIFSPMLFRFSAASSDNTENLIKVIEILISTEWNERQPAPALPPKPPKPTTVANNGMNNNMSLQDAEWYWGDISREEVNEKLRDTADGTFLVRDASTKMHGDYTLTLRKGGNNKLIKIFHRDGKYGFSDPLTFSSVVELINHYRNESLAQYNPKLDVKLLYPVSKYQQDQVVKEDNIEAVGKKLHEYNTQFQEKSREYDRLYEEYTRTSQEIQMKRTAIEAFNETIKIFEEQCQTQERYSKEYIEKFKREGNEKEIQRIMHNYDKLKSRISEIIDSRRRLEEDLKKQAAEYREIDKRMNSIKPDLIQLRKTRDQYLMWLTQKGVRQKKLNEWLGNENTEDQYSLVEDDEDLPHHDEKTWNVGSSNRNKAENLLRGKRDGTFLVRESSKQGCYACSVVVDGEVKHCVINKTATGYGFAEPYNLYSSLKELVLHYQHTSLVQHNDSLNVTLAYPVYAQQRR

PI3K-gamma, sequence (P48736 whole entry, species assumed, the tested form may be a part, canonical isoform): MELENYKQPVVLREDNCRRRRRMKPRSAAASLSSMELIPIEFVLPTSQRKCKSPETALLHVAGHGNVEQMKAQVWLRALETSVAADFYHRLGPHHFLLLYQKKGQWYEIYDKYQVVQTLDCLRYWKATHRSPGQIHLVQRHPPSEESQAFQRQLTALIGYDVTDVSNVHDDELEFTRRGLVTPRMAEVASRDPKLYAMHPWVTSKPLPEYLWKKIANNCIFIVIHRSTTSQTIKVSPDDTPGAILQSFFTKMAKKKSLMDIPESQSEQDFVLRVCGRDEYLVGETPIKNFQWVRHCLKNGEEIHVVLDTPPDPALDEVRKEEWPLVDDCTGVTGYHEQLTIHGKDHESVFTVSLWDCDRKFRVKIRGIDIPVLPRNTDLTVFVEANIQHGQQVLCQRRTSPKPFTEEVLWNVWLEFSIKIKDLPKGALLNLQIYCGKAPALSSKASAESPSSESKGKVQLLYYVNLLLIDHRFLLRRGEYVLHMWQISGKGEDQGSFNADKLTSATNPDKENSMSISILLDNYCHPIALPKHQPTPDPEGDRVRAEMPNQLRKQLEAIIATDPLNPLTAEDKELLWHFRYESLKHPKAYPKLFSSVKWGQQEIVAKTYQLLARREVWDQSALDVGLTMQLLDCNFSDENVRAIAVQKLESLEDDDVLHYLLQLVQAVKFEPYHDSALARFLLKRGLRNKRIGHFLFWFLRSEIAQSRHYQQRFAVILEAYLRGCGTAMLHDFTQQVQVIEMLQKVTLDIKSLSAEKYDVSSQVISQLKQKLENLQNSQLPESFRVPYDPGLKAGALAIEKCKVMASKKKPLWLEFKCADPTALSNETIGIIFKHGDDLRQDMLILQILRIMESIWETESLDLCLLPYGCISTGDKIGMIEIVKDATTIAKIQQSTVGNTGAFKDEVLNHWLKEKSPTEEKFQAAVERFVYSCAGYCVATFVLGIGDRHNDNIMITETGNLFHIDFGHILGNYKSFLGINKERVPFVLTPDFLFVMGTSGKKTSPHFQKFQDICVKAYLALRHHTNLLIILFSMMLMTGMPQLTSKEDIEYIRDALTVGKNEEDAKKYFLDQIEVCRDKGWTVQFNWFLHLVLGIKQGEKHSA

IC50 (PI3K-gamma) | IC50 (human TOR) | IC50 (PI3K-alpha) | SMILES
1.65 µM | 61 nM | 935 nM | Cn1cc(/C=C2\Oc3cc(O)cc(O)c3C2=O)c2c(-c3ccc(NC(=O)N4CCOCC4)cc3)cccc21 [Example 404, N-(4-{3-[(Z)-(4,6-dihydroxy-3-oxo-1-benzofuran-2(3H)-ylidene)methyl]-1-methyl-1H-indol-4-yl}phenyl)morpholine-4-carboxamide]
> 10 µM | > 20000 nM | > 10000 nM | COc1ccc2c(c1)c(/C=C1\Oc3cc(NC(C)=O)ccc3C1=O)cn2CCCN(C)C [Example 407, N-(2Z)-[2-({1-[3-(Dimethylamino)propyl]-5-methoxy-1H-indol-3-yl}methylene)-3-oxo-2,3-dihydro-1-benzofuran-6-yl]acetamide]
5.61 µM | > 20000 nM | 7820 nM | COc1ccc2c(c1)c(/C=C1\Oc3cc(Br)ccc3C1=O)cn2CCCN(C)C [Example 413, (2Z)-6-bromo-2-({1-[3-(dimethylamino)propyl]-5-methoxy-1H-indol-3-yl}methylene)-1-benzofuran-3(2H)-one]
0.281 µM | 1850 nM | 55 nM | COc1ccc2[nH]cc(/C=C3\Oc4cc(O)ccc4C3=O)c2c1 [Example 414, (2Z)-6-Hydroxy-2-[(5-methoxy-1H-indol-3-yl)methylene]-1-benzofuran-3(2H)-one]
> 10 µM | 31.5 nM | 708 nM | Cn1cc(/C=C2\Oc3cc(O)cc(O)c3C2=O)c2c(-c3ccc([N+](=O)[O-])cc3)cccc21 [Example 420, (2Z)-4,6-Dihydroxy-2-{[1-methyl-4-(4-nitrophenyl)-1H-indol-3-yl]methylene}-1-benzofuran-3(2H)-one]
> 10 µM | > 20000 nM | > 10000 nM | COc1ccc(Br)c2c1C(=O)/C(=C/c1cn(C)c3cccc(-c4ccccc4)c13)O2 [Example 423, (2Z)-7-Bromo-4-methoxy-2-[(1-methyl-4-phenyl-1H-indol-3-yl)methylene]benzofuran-3(2H)-one]
> 10 µM | > 20000 nM | 4020 nM | COc1ccc2c(c1)c(/C=C1\Oc3cc(CO)ccc3C1=O)cn2CCCN(C)C [Example 424, (2Z)-2-({1-[3-(dimethylamino)propyl]-5-methoxy-1H-indol-3-yl}methylene)-6-(hydroxymethyl)-1-benzofuran-3(2H)-one]
> 5 µM | > 20000 nM | > 5000 nM | Cn1cc(/C=C2\Oc3c(Br)ccc(O)c3C2=O)c2c(-c3ccccc3)cccc21 [Example 428, (2Z)-7-Bromo-4-hydroxy-2-[(1-methyl-4-phenyl-1H-indol-3-yl)methylene]benzofuran-3(2H)-one]
3.13 µM | 500 nM | 67.5 nM | COc1ccc2c(c1)c(/C=C1\Oc3cc(O)cc(Br)c3C1=O)c(C)n2CCN1CCN(C)CC1 [Example 429, (2Z)-4-Bromo-6-hydroxy-2-({5-methoxy-2-methyl-1-[2-(4-methylpiperazin-1-yl)ethyl]-1H-indol-3-yl}methylene)-1-benzofuran-3(2H)-one]
0.197 µM | 115 nM | 7.5 nM | COc1ccc2c(c1)c(/C=C1\Oc3cc(O)cc(O)c3C1=O)c(C(=O)N1CCCC1)n2CCN1CCN(C)CC1 [Example 430, (2Z)-4,6-Dihydroxy-2-({5-methoxy-1-[2-(4-methylpiperazin-1-yl)ethyl]-2-(pyrrolidin-1-ylcarbonyl)-1H-indol-3-yl}methylene)-1-benzofuran-3(2H)-one]
> 10 µM | > 20000 nM | > 10000 nM | COc1ccc2[nH]cc(C=C3Oc4cc(SC)ccc4C3=O)c2c1 [Example 434, 2-[(5-Methoxy-1H-indol-3-yl)methylene]-6-(methylthio)-1-benzofuran-3(2H)-one]

Continued, compound first:

SMILES | IC50 (PI3K-gamma) | IC50 (human TOR) | IC50 (PI3K-alpha)
COC(=O)Nc1ccc2c(c1)OC(=Cc1cn(CCCN(C)C)c3ccc(OC)cc13)C2=O [Example 405, Methyl [2-({1-[3-(dimethylamino)propyl]-5-methoxy-1H-indol-3-yl}methylene)-3-oxo-2,3-dihydro-1-benzofuran-6-yl]carbamate] | > 10 µM | > 20000 nM | > 10000 nM
COc1ccc2c(c1)c(/C=C1\Oc3cc(O)cc(O)c3C1=O)c(C1CCCC1)n2CCN1CCN(C)CC1 [Example 410, (2Z)-2-({2-cyclopentyl-5-methoxy-1-[2-(4-methylpiperazin-1-yl)ethyl]-1H-indol-3-yl}methylene)-4,6-dihydroxy-1-benzofuran-3(2H)-one] | 0.116 µM | 0.64 nM | 3 nM
COc1ccc2c(c1)c(/C=C1\Oc3cc(O)ccc3C1=O)c(C1CCCC1)n2CCN1CCN(C)CC1 [Example 411, (2Z)-2-({2-Cyclopentyl-5-methoxy-1-[2-(4-methylpiperazin-1-yl)ethyl]-1H-indol-3-yl}methylene)-6-hydroxy-1-benzofuran-3(2H)-one] | 0.984 µM | 47 nM | 11.5 nM
COc1ccc2c(c1)c(/C=C1\Oc3cc(O)ccc3C1=O)c(C(=O)N1CCOCC1)n2CCN1CCN(C)CC1 [Example 412, (2Z)-6-Hydroxy-2-({5-methoxy-1-[2-(4-methylpiperazin-1-yl)ethyl]-2-(morpholin-4-ylcarbonyl)-1H-indol-3-yl}methylene)-1-benzofuran-3(2H)-one] | 0.888 µM | 2800 nM | 10.5 nM
COc1ccc2c(c1)c(/C=C1\Oc3cc(NC(=O)OC(C)(C)C)ccc3C1=O)cn2CCCN(C)C [Example 417, tert-butyl (2Z)-[2-({1-[3-(dimethylamino)propyl]-5-methoxy-1H-indol-3-yl}methylene)-3-oxo-2,3-dihydro-1-benzofuran-6-yl]carbamate] | 2.1 µM | > 20000 nM | 4740 nM
COc1ccc2c(c1)c(/C=C1\Oc3cc(N)ccc3C1=O)cn2CCCN(C)C [Example 418, (2Z)-6-amino-2-({1-[3-(dimethylamino)propyl]-5-methoxy-1H-indol-3-yl}methylene)-1-benzofuran-3(2H)-one] | 9.5 µM | 10300 nM | 1380 nM
Cn1cc(/C=C2\Oc3cc(O)cc(O)c3C2=O)c2c(-c3ccccc3N)cccc21 [Example 419, (2Z)-2-{[4-(2-Aminophenyl)-1-methyl-1H-indol-3-yl]methylene}-4,6-dihydroxy-1-benzofuran-3(2H)-one] | > 10 µM | 24 nM | 1070 nM
COc1ccc2c(c1)c(/C=C1\Oc3cc(NS(C)(=O)=O)ccc3C1=O)cn2CCCN(C)C [Example 422, N-(2Z)-[2-({1-[3-(Dimethylamino)propyl]-5-methoxy-1H-indol-3-yl}methylene)-3-oxo-2,3-dihydro-1-benzofuran-6-yl]methanesulfonamide] | 7.64 µM | > 20000 nM | 9000 nM
CN1CCN(CCn2cc(/C=C3\Oc4cc(O)cc(O)c4C3=O)c3c(-c4ccc(C(N)=O)cc4)cccc32)CC1 [Example 425, 4-{3-[(Z)-(4,6-Dihydroxy-3-oxo-1-benzofuran-2(3H)-ylidene)methyl]-1-[2-(4-methylpiperazin-1-yl)ethyl]-1H-indol-4-yl}benzamide] | 8.65 µM | > 20000 nM | 5040 nM
COc1ccc2c(c1)c(/C=C1\Oc3cc(-c4ccc(NC(C)=O)cc4)ccc3C1=O)cn2CCCN(C)C [Example 426, N-{4-[(2Z)-2-({1-[3-(Dimethylamino)propyl]-5-methoxy-1H-indol-3-yl}methylene)-3-oxo-2,3-dihydro-1-benzofuran-6-yl]phenyl}acetamide] | > 10 µM | > 20000 nM | 6250 nM
COc1ccc2c(c1)c(/C=C1\Oc3cc(-c4cnc(N)nc4)ccc3C1=O)cn2CCCN(C)C [Example 427, (2Z)-6-(2-Aminopyrimidin-5-yl)-2-({1-[3-(dimethylamino)propyl]-5-methoxy-1H-indol-3-yl}methylene)-1-benzofuran-3(2H)-one] | 3.03 µM | > 20000 nM | 9530 nM
COc1cc(O)cc2c1C(=O)/C(=C/c1c(-c3ccccc3)n(C)c3ccccc13)O2 [Example 432, (2Z)-6-Hydroxy-4-methoxy-2-[(1-methyl-2-phenyl-1H-indol-3-yl)methylene]benzofuran-3(2H)-one] | 8.14 µM | 2030 nM | > 10000 nM
COc1ccc2c(c1)SC(=Cc1c[nH]c3ccc(OC)cc13)C2=O [Example 433, 6-Methoxy-2-[(5-methoxy-1H-indol-3-yl)methylene]-1-benzothiophen-3(2H)-one] | > 10 µM | > 20000 nM | > 10000 nM
COc1ccc2[nH]cc(C=C3Oc4cc(S(C)(=O)=O)ccc4C3=O)c2c1 [Example 436, 2-[(5-Methoxy-1H-indol-3-yl)methylene]-6-(methylsulfonyl)-1-benzofuran-3(2H)-one] | > 10 µM | > 20000 nM | > 10000 nM
Cn1c(-c2ccccc2)c(/C=C2\Oc3cc(O)cc(O)c3C2=O)c2c(C#N)cccc21 [Example 437, 3-[(Z)-(4,6-dihydroxy-3-oxo-1-benzofuran-2(3H)-ylidene)methyl]-1-methyl-2-phenyl-1H-indole-4-carbonitrile] | > 10 µM | < 23 nM | 1600 nM
CN1CCN(CCn2cc(/C=C3\Oc4cc(O)cc(O)c4C3=O)c3c(-c4ccc(N(C)C)cc4)cccc32)CC1 [Example 438, (2Z)-2-({4-[4-(Dimethylamino)phenyl]-1-[2-(4-methylpiperazin-1-yl)ethyl]-1H-indol-3-yl}methylene)-4,6-dihydroxy-1-benzofuran-3(2H)-one] | 9 µM | > 20000 nM | 2980 nM
